From PMC4393181, “The Chemopotential Effect of Annona muricata Leaves against Azoxymethane-Induced Colonic Aberrant Crypt Foci in Rats and the Apoptotic Effect of Acetogenin Annomuricin E in HT-29 Cells: A Bioassay-Guided Approach” (PLoS ONE, 2015) come the findings set out here.

The test system of data set [1] is HT-29 (human colon cancer cells). Put plainly: MTT assay on HT-29 cells. The note with it: mean ± SEM of three experiments. Format: cell-based. The procedure: (§1) CCD841 (normal human colon epithelial cells) and HT-29 (human colon cancer cells) were purchased from the American Type Cell Collection (ATCC, Manassas, VA, USA). The cells were maintained at 37°C in a humidified atmosphere of 5% CO2. The culture medium consisted of Dulbecco’s Modified Eagles medium (Sigma) that was supplemented with 10% Fetal Bovine Serum (PAA Laboratories, Pasching, […]), 100 μg/ml streptomycin (Sigma) and 100 U/ml penicillin (Sigma). The untreated medium containing 0.1% vehicle DMSO was applied as the negative control for all of the assays in the in vitro study.
(§2) Cell viability analysis was performed using the MTT assay as described previously. In brief, cells (5 × 10^4 cells/ml) at the exponential phase of growth were seeded in a 96-well plate and treated with serial concentrations of the tested agent (0.62, 1.25, 2.5, 5, 10, 20, 40 and 80 μg/ml) for 12, 24 and 48 h. 5-FU, a standard anticancer drug, was used as a positive control in this assay. After incubation, 20 μl of the MTT solution (5.0 mg/ml, Sigma) was loaded into each well, and the cells were further incubated at 37°C for 4 h. DMSO (150 μl) was then used to dissolve the formazan crystals. The cytotoxicity against cancer and normal cells was measured at the absorbance of 570 nm using an ELISA reader (Asys UVM340, Eugendorf, Austria). The data were then processed, and the antiproliferative potential of the tested agents was expressed as IC50 values, the concentration that causes a 50% inhibition of cell growth.

The subject of data set [2] is CCD841 (normal human colon epithelial cells). Nature of the data set: MTT assay on CCD841 cells. It counts as cell-based. Conditions: mean ± SEM of three experiments. The method, then: as §1, §2
On the technique in general: Tetrazolium dyes change colour on reduction, which living cells bring about.

Another data set deals with caspase 9. Nature of the data set: Caspase-Glo 9 luminescence assay. Format: cell-based, human. Conditions: HT-29, IC50 concentration, 12 to 48 h, vs control. The method, then: (§3) A luminescence-based analysis was performed to investigate the activity of caspase 3/7 and caspase 9 using the Caspase-Glo 9 Assay and Caspase-Glo 3/7 Assay commercial kits (Promega Corporation, Fitchburg, WI, USA) as described previously. […] After incubation, 100 μl of the caspase-Glo reagent was added to each well according to the manufacturer’s protocol. Luminescence, which represents the caspase activities, was measured using a luminescence microplate reader (Tecan Infinite 200 Pro).

The next data set concerns caspase 3/7. Put plainly: Caspase-Glo 3/7 luminescence assay. Format: cell-based, human. The note with it: HT-29, IC50 concentration, 12 to 48 h, vs control. The method, then:
as §3

In data set [3] the test system is HT-29 cells. Put plainly: LDH release assay. Conditions: HT-29, 24 h, compared with 0.1% DMSO control. It counts as cell-based, human. The method, then: To further confirm the cytotoxic effects of annomuricin E on HT-29 cells, the LDH release assay was performed using the Pierce LDH Cytotoxicity Assay Kit (Thermo Scientific, Pittsburgh, PA, USA) as previously described. Briefly, HT-29 cells at the exponential phase of growth were treated with different concentrations of annomuricin E and Triton X-100 (positive control) for 24 h. After the incubation, the treated HT-29 cells were exposed to the LDH reaction solution (100 μl) for 30 min. The red color intensity, representing the level of released LDH, was then measured at 490 nm using the Tecan Infinite 200 Pro (Tecan, Männedorf, Switzerland) microplate reader. The result of LDH release was calculated as a percentage of the positive control.
In general terms: Release of lactate dehydrogenase indicates damage to the cell membrane.

The subject of data set [4] is Bax. Put plainly: Q-PCR gene expression analysis of Bax. The note with it: HT-29, IC50 concentration, 48 h, normalized to β-actin. It counts as cell-based, human. The procedure: (§4) The mRNA expression of two proteins, Bcl-2 and Bax, was quantified using real-time Q-PCR analysis as described previously with some modifications. […] The total RNA of treated cells was isolated using the RNeasy Plus Mini kit (Qiagen, Hilden, Germany) followed by the synthesis of the complementary DNA using the iScript cDNA synthesis kit (Biorad, Hercules, CA, USA). Q-PCR was performed on the StepOne PLUS real-time PCR machine (Applied Biosystems, Carlsbad, CA, USA). The β-actin housekeeping gene was used as a positive reference and was applied to normalize the target mRNA. The Q-PCR master mix was provided by Solaris Q-PCR Expression Assays (Thermo Fisher Scientific, Waltham, MA, USA) for the gene expression analysis of Bcl-2, AX-003307-00-0100; Bax, AX-003308-00-0100; and β-actin, AX-003451-00-0100.

Data set [5] relates to Bcl-2. Put plainly: Immunofluorescence analysis of Bcl-2. It counts as cell-based, human. Conditions: HT-29, IC50 concentration, 12, 24 and 48 h, compared with control. The method, then: (§5) The perturbation in the protein expressions of Bcl-2 and Bax was investigated using immunofluorescence analysis as previously described in detail. […] After washing the cells twice with PBS, they were fixed in 4% paraformaldehyde at 25°C for 20 min prior to blocking with blocking buffer (0.03% Triton X-100/PBS and normal serum) for 1 h. The cells were then supplemented with a primary antibody solution and incubated overnight at 4°C. After incubation, the cells were treated with Bcl-2 and Bax flurochrome-conjugated secondary antibody (Santa Cruz Biotechnology, Santa Cruz, CA, USA) for 1 h. The cells were then washed twice with PBS prior to staining with DAPI. The stained cells were examined using the Cell Reporter cytofluorimeter system.

For data set [6], the system named is HT-29 cells. Nature of the data set: Cell cycle assay (PI staining, flow cytometry). Format: cell-based, human. The note with it: HT-29, IC50 concentration. The method, then:
To determine the effect of annomuricin E on the cell cycle distribution, flow cytometric analysis was performed as described previously. […] After incubation, the treated HT-29 cells were harvested, washed twice with ice-cold PBS and fixed overnight at 4°C with 90% ethanol. The following day, the cells were washed and stained with propidium iodide (PI, 100 μl, 1 mg/ml). The cellular RNA was degraded using the enzyme RNAse A (200 μg/ml, Sigma). The stained cells were instantly examined using a BD FACSCanto II flow cytometer (BD Biosciences, San Jose, CA, USA) by analyzing 10,000 cells per sample. The data were processed using ModFit LT software (Verity Software House, Inc., Topsham, ME, USA).

Data set [7] concerns Bax. Put plainly: Immunofluorescence analysis of Bax. Format: cell-based, human. The note with it: HT-29, IC50 concentration, 48 h. The procedure:
as §5

Data set [8] has as its system HT-29 cells. Nature of the data set: Annexin V-FITC/PI detection of early and late apoptosis. It counts as cell-based, human. Conditions: HT-29, IC50 concentration. The method, then: Flow cytometric analysis was performed to quantify early and late apoptosis in treated HT-29 cells using the commercial BD Pharmingen Annexin V-FITC Apoptosis Detection kit (APOAlert Annexin V; Clontech, Mountain View, CA, USA). […] After incubation, the treated cells were harvested, washed twice with PBS and suspended in the Annexin-V binding buffer. The cells were then supplemented with Annexin-V-FITC and PI, according to the vendor’s instructions. The stained cells were examined using a BD FACSCanto II flow cytometer. Early and late apoptotic cells and necrotic cells were quantitatively detected using a quadrant statistics analysis.

The subject of data set [9] is HT-29 cells. Put plainly: Multiple cytotoxicity assay (Cellomics Multiparameter Cytotoxicity 3 Kit). It counts as cell-based, human. The procedure:
The simultaneous analysis of critical apoptosis markers, namely cell membrane permeability, cytochrome c leakage from the mitochondria, mitochondrial membrane potential (MMP) and total nuclear intensity, in HT-29 cells was performed using the Cellomics Multiparameter Cytotoxicity 3 Kit (Cellomics, Pittsburgh, PA, USA) as previously described in detail. […] After incubation, the treated cells were stained with a cell permeability dye (FITC), a cytochrome c dye (Cy3), a mitochondrial membrane potential dye (Cy5) and a nuclear dye (Hoechst 33342), according to the vendor’s protocol. The plates were analyzed using a Cell Reporter cytofluorimeter system (Gentix/Molecular Devices, United Kingdom).

Data set [10] relates to Bcl-2. Nature of the data set: Q-PCR gene expression analysis of Bcl-2. It counts as cell-based, human. Conditions: HT-29, IC50 concentration, 12 to 48 h. The method, then: as §4

One may read the IC50 as the point on the concentration scale where inhibition reaches its midpoint. With annomuricin E, the IC50 was 5.72 ± 0.41 µg/mL in data set [1] (HT-29, 12 h); 3.49 ± 0.22 µg/mL in [1] (HT-29, 24 h); 1.62 ± 0.24 µg/mL in data set [1] (HT-29, 48 h); 64.32 ± 3.76 µg/mL in [2] (CCD841, 12 h); 47.10 ± 0.47 µg/mL in data set [2] (CCD841, 24 h); 32.51 ± 1.18 µg/mL in [2] (CCD841, 48 h). For the same substance, in the data set with caspase 9, the “Caspase 9 activity” value is “significantly elevated”. In addition, in the data set with caspase 3/7, the “Caspase 3/7 activity” value was “significantly elevated”. In the data set with HT-29 cells [3], the “Lowest concentration with significant LDH leakage” value was found to be 4 µg/mL. Also, the “Bax mRNA expression, increase relative to control” value in the data set with Bax [4] is listed as “approximately 5 fold”. Also, the Bcl-2 protein expression entry with Bcl-2 [5] is “significantly and dose-dependently reduced”. Moreover, the “Percentage of cells arrested at the G1 phase” value with HT-29 cells [6] (24 h) came to 89.65%; in the data set on HT-29 cells [6] (48 h) it was 94.60%. The “Bax protein expression (FITC fluorescent intensity), increase relative to control” value in the data set with Bax [7] was “approximately 10 fold”. Further, the “Percentage of late apoptotic cells (Annexin V+/PI+)” value is 6.9% in the data set with HT-29 cells [8] (12 h (control 0.5%)) and 13.6% in the data set on HT-29 cells [8] (24 h (peak)). Besides, the “Percentage of early apoptotic cells (Annexin V+/PI-)” value with HT-29 cells [8] (12 h (control 3.6%)) came to 13.9%; in the data set on HT-29 cells [8] (24 h (peak)) it was 27.3%. For the same substance, the Total nuclear intensity entry with HT-29 cells [9] (HT-29, IC50 concentration, 12, 24 and 48 h) is given as “significantly elevated”. For the same substance, the “Mitochondrial membrane potential (MMP)” value in the data set on HT-29 cells [9] (HT-29, IC50 concentration, 12 h) is on record as “significant collapse”. Further, in the data set with HT-29 cells [9] (HT-29, IC50 concentration, from 12 h, time-dependent), the “Cytochrome c leakage from the mitochondria” value is on record as “increase in cytochrome c leakage”. The Cell membrane permeability result with HT-29 cells [9] (HT-29, IC50 concentration, only 24 and 48 h) is reported as “significantly increased”. In the data set on Bcl-2 [10], the “Bcl-2 mRNA expression” value was “time-dependently reduced”.
